≈ marks a conversion by molar mass, not a printed value. Where “and” joins values, the source holds several entries; their conditions need not be identical. Identical values can stand only once. Like-named read-outs stand apart in the source and are kept apart here.
Assays:
[1] = Cytotoxicity in HIV experiments, test not described; type: cell-based
Excerpt: (§1) and may be prepared by the H2 O2 oxidation of cysteamine (Mills, Jr. et al, J. Am. Chem. Soc., vol. 62, 1173 (1940); and Barnett, J. Chem. Soc., 1944, 5).

[2] = test system: HIV; test: Activity against HIV, test not described; type: cell-based
Excerpt: as §1

[3] = test system: epithelial fibroblasts; details: cited from earlier work
[4] = target: T1, Human acrosin (Homo sapiens, UniProt P10323); test: Acrosin inhibition assay; type: biochemical; details: for Acrosin Activity: control 5.4 ± 0.14; for Acrosin Inhibitor (active yes/no): screened at 1 mg/ml
T1 construct: human acrosin is isolated from washed spermatozoa from frozen semen; from tissue; host or cells: washed human spermatozoa from frozen semen; acid extract, ultrafiltration, Sephadex G-150 pool
Protocol: Human acrosin activity is measured by following the progression of hydrolysis of N-α-benzoyl-L-arginine ethyl ester (BAEE) spectrophotometrically at 253 nm. Enzyme isolation, partial purification and measurement are carried out by methods described in detail by Anderson et al. (Biochem. J., vol. 199, pp. 307-316 (1981)). Briefly, human acrosin is isolated from washed spermatozoa from frozen semen by extraction with 66 mM acetic acid, pH 2.8. The extract is concentrated by ultrafiltration (Amicon PM 10) and applied to a column that contains Sephadex G-150 (superfine); elution is carried out with 55 mM acetic acid that contains 0.1M NaCl. The eluted volume that contains acrosin activity is pooled and used as the source of enzyme.
Enzyme reaction mixtures contain the following: 50 mM sodium phosphate, pH 7.5 (Anderson et al, Arch. Biochem. Biophys., vol. 241, pp. 509-520 (1985)); Enzyme-containing protein (3-5 mIU, where 1 mIU is the amount of enzyme required to hydrolyze 1 nmole BAEE per min); 0.05 mM BAEE; with or without inhibitor, in a total volume of 1.0 ml.
The test compound is screened at a concentration of 1 mg/ml, unless solubility is limited. The enzyme is preincubated with the test agent for 5 minutes prior to starting the reaction by adding BAEE. Reaction blanks, in which either substrate or enzyme has been eliminated, are run in parallel to the reactions.
The rate of change in absorbance at 253 nm is determined. The change in absorbance that corresponds to 1 μmole of BAEE (in a total volume of 1.0 ml) hydrolyzed is taken as 1.15.
The enzyme activity in the presence of each agent is compared with that for the control reaction (no test agent added). The data are reported as % inhibition. […] A dose-response curve is generated at several concentrations of test compound if significant inhibition is obtained at the screening concentration.
Reversibility of acrosin inhibition is determined by the method of Ackermann and Potter (Proc. Soc. Exp. Biol. Med., vol. 72, pp. 1-9 (1949)), in which the level of inhibited enzyme activity is determined in the presence of different amounts of enzyme.
(§2) IC50 values (those concentrations of inhibitor that produce 50% inhibition under the conditions of the assay) are determined by analyzing enzyme activity as a function of inhibitor concentration, with curve-fitting software (TableCurve 2D, version 3.02; Jandel Scientific).

[5] = test system: motile spermatozoa; test: Assessment of spermicidal activity (sperm motility, Sander and Cramer); type: cell-based
Protocol: The method is based on that originally described by Sander and Cramer (F. V. Sander and S. D. Cramer. Human Fertil., vol. 6, pp. 134 (1941)). Apparent spermicidal activity of the test agents are compared to that of a control preparation of nonoxynol-9 (N9).
For the screening of spermicidal activity of a test agent, a solution of 50 mg/ml is prepared in 0.9% NaCl. This solution is adjusted to pH 7.0 with either HCl or NaOH and is further diluted in 0.9% NaCl to concentrations of 25 mg/ml, 10 mg/ml, 5 mg/ml, and 2.5 mg/ml. N9 is prepared as a solution of 100 μg/ml in 0.9% NaCl.
The agents are tested by mixing 40 μl of freshly ejaculated semen with 200 μl of test agent at each concentration. Just prior to and 30 seconds after mixing, the percentage of motile spermatozoa is determined by microscopic observation (400×). If 90-100% inhibition of motility is obtained at the lowest concentration tested, the experiment is repeated with a different range of concentrations, the highest concentration being 2.5 mg/ml. A dose-response curve is constructed.

[6] = test system: HTLVIIIB; details: 100 μM, added twice-daily, CEM-T4 lymphocytes; cited from earlier work
[7] = target: T2, sheep testicular hyaluronidase (Ovis aries, UniProt A0ACI6R774); test: Hyaluronidase inhibition assay; type: biochemical; details: for Absorbance at 545 nm, Reaction: blank 0.0463
T2 construct: soluble form of GPI-anchored sperm protein
T2 sequence (A0ACI6R774 34-551): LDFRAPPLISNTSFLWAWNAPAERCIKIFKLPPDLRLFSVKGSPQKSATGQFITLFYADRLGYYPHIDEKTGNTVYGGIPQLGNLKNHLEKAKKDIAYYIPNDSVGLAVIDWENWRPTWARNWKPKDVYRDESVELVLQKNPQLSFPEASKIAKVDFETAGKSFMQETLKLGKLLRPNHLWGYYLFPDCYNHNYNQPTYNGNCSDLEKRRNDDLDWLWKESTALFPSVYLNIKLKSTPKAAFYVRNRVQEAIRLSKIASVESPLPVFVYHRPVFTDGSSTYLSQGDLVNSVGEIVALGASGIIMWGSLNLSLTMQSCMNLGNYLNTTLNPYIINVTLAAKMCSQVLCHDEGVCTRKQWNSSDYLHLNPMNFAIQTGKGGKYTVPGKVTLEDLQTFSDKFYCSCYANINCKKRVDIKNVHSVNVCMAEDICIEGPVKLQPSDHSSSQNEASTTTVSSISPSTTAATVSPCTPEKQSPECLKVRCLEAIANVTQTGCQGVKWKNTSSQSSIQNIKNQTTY
Protocol: Hyaluronidase activity is quantified by measuring the extent of hyaluronic acid hydrolysis. This is measured by determining the concentration of N-acetylglucosamine-reactive material, resulting from enzyme action.
Reaction mixtures contain the following, in a total volume of 0.25 ml: 0.1M sodium acetate, containing 0.15M NaCl, pH 5.5 (Acetate buffer); 7.2 Units sheep testicular hyaluronidase (Sigma, Type III; cat. no. H-2251), from a stock solution dissolved in the Acetate buffer; 0.3 mg/ml hyaluronic acid (Sigma, from bovine vitreous humor, cat-no. H-7630).
The test compound is screened at a concentration of 1 mg/ml, unless aqueous solubility is limited. The enzyme is preincubated with the test agent for 10 minutes prior to starting the reaction by adding hyaluronic acid. Enzyme reactions are determined by the method of Aronson and Davidson (J. Biol. Chem., vol. 242, pp. 437-440 (1967)). Incubations are carried out for 30 minutes at ambient temperature. Reaction product is determined colorimetrically after reaction with p-dimethylaminobenzaldehyde (Reissig et al., J. Biol. Chem., vol. 217, pp. 959-966 (1955)). The absorbance of the resultant adduct is immediately determined at 545 nm.
Differences are determined between absorbencies for reactions run in the presence and absence of hyaluronidase (blank, in which hyaluronidase is added after terminating reaction). This is compared to a standard curve of known amounts of N-acetylglucosamine that were treated identically to enzyme reaction mixtures, and converted to μmole equivalents of N-acetylglucosamine. The data are reported as % inhibition, compared to control. A dose-response curve is generated at several concentrations of test compound if significant inhibition is obtained at the screening concentration.
as §2

[8] = test system: CEM-T4 lymphocytes; details: 100 μM, added twice-daily; cited from earlier work
[9] = test system: Lactobacillus gasseri; test: Assay of vaginal lactobacillus growth; type: cell-based
Protocol: Cysteamine was screened with regard to its potential cytotoxicity toward normal vaginal flora. Growth of vaginal lactobacillus was used as a measure of this effect.
Lactobacillus gasseri, obtained from the American Type Culture Collection (Rockville, Md.) is cultured under anaerobic conditions at 37° in the presence of test agent or no additions (control). Beginning at 120 minutes after the start of incubation and at 20 minute intervals, for a total length of 240 minutes, samples are removed from the incubation flasks, and the absorbance of each suspension at 550 nm is determined, as an estimate of cell density. Data are fit to the equation, Ln (Absorbance)=a+b (Time), where a is the absorbance at 0 time, b is the slope of the curve, and time is measured in minutes. The doubling time (TD) is calculated from the equation TD =(Ln 2)/b. Values are given as the doubling time of bacterial growth, together with the 90% confidence limits. Inhibition of bacterial growth by a test agent can be directly calculated from the reciprocal values of the doubling time (i.e., 75% inhibition of the reciprocal of the calculated doubling time is equal to 75% inhibition of bacterial growth).
Dose-response curves are produced by determining the doubling time of the culture in the presence of each of several concentrations of test agent, the exact range of which is determined by the results of the screening test that is described above. The concentration of test agent that inhibits the growth of lactobacillus by 50% (IC50) is determined from the calculated doubling time at each concentration of test agent, with curve-fitting software (TableCurve 2D, version 3.02, Jandel Scientific).

[10] = test system: cystine crystals found in the corneas; details: topical aqueous 0.1% and 0.5%; cited from earlier work
[11] = 1 mg/ml test agent, 10 min preincubation

T1 sequence (P10323 43-343 limits assumed): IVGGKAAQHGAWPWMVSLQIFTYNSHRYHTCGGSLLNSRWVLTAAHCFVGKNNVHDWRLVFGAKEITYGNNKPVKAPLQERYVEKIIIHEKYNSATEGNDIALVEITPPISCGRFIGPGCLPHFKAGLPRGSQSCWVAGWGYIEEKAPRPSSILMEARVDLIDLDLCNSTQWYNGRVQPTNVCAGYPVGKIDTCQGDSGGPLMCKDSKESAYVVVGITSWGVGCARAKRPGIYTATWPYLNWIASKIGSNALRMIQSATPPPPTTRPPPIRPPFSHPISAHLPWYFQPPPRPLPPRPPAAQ
T1 sequence (P10323 20-42 partner limits assumed): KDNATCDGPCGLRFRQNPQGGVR

NCCSSCCN [Cystamine]
Cytotoxicity ([1]; 100 μM): little cytotoxicity | Activity against the HIV pathogen [2]: substantial activity

NCCS [cysteamine, Cysteamine]
Cloning efficiency ([3]; 10 μM): severe loss in cloning efficiency | Cloning efficiency ([3]; One hundred μM): zero | Doubling time ([3]; One hundred μM): two-fold increase | Effect on growth rate ([3]; concentrations up to 10 μM): no effect on growth rate | Acrosin Activity ([4]; cysteamine 0.08 mg/ml): 5.2 ± 0.74 μmoles BAEE hydrolyzed/min/mg | Acrosin Activity ([4]; cysteamine 0.10 mg/ml): 3.8 ± 0.32 μmoles BAEE hydrolyzed/min/mg | Acrosin Activity ([4]; cysteamine 0.25 mg/ml): 3.4 ± 0.10 μmoles BAEE hydrolyzed/min/mg | Acrosin Activity ([4]; cysteamine 0.50 mg/ml): 2.2 μmoles BAEE hydrolyzed/min/mg | Acrosin Activity ([4]; cysteamine 0.8 mg/ml): 0.9 ± 0.28 μmoles BAEE hydrolyzed/min/mg | Acrosin Activity ([4]; cysteamine 1.0 mg/ml): 0.6 μmoles BAEE hydrolyzed/min/mg | 3 Log reduction (99.9% inhibition) of acrosin ([4]; from fitted curve, above highest tested concentration): 3.3 mg/ml | IC99.9 ([4]; from fitted curve, above highest tested concentration, read-out: 3 Log reduction (99.9% inhibition) of acrosin): 3270 µg/mL | Reversibility of acrosin inhibition ([4]; method of Ackermann and Potter, different amounts of enzyme): consistent with a reversible mechanism of inhibition | Acrosin Inhibitor (active yes/no) [4]: active | Acrosin Inhibitor (active yes/no) ([4]; listed as Cysteamine): Yes | IC50 ([4]; summary table): 4.8 mM | Spermicide (effect on sperm motility, in words) [5]: reduce sperm motility | Spermicide (effect on sperm motility, in words) ([5]; listed as Cysteamine): Yes | Survival of treated cells, protection against HTLVIIIB [6]: 133 % of control | IC20 [7]: 87 µg/mL (≈ 1130 µM) | IC80 [7]: 219 µg/mL (≈ 2840 µM) | % Inhibition at 1 mg/ml (hyaluronidase) [7, 11]: completely inhibit | inhibition at 1000 µg/mL [7, 11]: 100% | Absorbance at 545 nm, Reaction ([7]; cysteamine 1.6 μg/ml): 0.1892 and 0.1967 | Absorbance at 545 nm, Reaction ([7]; cysteamine 8.0 μg/ml): 0.1955 and 0.1853 | Absorbance at 545 nm, Reaction ([7]; cysteamine 40.0 μg/ml): 0.1775 and 0.1855 | Absorbance at 545 nm, Reaction ([7]; cysteamine 200 μg/ml): 0.0585 and 0.0656 | Absorbance at 545 nm, Reaction ([7]; cysteamine 1,000 μg/ml): 0.0068 and 0.0069 | Hyaluronidase Inhibitor (yes/no) ([7]; summary table): Yes | Cellular toxicity [1]: lack of cellular toxicity | Toxicity (cell survival) [8]: 120.8 % of control | % Inhibition at 5 mg/ml (growth of vaginal lactobacillus) [9]: no effect | % Inhibition at 5 mg/ml (growth of vaginal lactobacillus) ([9]; listed as Cysteamine): No inhibition | inhibition at 5000 µg/mL ([9]; Lactobacillus gasseri, read-out: % Inhibition at 5 mg/ml (growth of vaginal lactobacillus)): 0% | Antiviral effect against HIV ([2]; other cell lines and other HIV strains): substantiate the antiviral effect | Reduction of corneal cystine crystals [10]: effective in reducing the cystine crystals | Tolerability in chronic topical use [10]: well-tolerated

nonylphenoxypolyoxyethene glycol [nonoxynol-9, reference compound]
% Inhibition at 1 mg/ml (hyaluronidase) [7, 11]: 4% | % Inhibition (growth of vaginal lactobacillus) ([9]; Tested at 0.5 mg/ml): 60%

— US5725870A, “Methods, composites and articles for contraception” (priority 1996, dated 1998)
